Experimental data as given in publication PMC7004565, “Nucleotide inhibition of the pancreatic ATP-sensitive K^+ channel explored with patch-clamp fluorometry” (eLife, 2020).
pEC50, pIC50: −log10 of the molar value.

Columns and labels:
Kir6.2*-GFP + SUR-K205A [1] = target: T1, Kir6.2*-GFP + SUR-K205A (Homo sapiens, UniProt Q14654); assay: Current inhibition in excised inside-out patches (patch-clamp fluorometry); assay type: biochemical; conditions: Mg2+-free, Hill fit
T1 construct: ANAP labelling is specific and only full-length Kir6.2 is expressed at the cell membrane; expressed in transfected cells; host or cells: HEK-293T
T1 sequence (Q14654 whole entry, stated change not applied): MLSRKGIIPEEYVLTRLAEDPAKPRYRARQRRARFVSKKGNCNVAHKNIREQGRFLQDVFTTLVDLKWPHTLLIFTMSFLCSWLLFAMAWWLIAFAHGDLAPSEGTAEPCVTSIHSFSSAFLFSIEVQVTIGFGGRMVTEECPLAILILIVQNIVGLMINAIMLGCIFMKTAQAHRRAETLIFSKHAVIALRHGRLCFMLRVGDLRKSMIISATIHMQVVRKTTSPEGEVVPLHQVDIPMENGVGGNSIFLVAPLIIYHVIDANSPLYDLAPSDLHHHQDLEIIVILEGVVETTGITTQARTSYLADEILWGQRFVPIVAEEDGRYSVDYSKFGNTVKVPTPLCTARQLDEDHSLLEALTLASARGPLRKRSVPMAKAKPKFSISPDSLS
T1 sequence (Q09428 whole entry K205A partner): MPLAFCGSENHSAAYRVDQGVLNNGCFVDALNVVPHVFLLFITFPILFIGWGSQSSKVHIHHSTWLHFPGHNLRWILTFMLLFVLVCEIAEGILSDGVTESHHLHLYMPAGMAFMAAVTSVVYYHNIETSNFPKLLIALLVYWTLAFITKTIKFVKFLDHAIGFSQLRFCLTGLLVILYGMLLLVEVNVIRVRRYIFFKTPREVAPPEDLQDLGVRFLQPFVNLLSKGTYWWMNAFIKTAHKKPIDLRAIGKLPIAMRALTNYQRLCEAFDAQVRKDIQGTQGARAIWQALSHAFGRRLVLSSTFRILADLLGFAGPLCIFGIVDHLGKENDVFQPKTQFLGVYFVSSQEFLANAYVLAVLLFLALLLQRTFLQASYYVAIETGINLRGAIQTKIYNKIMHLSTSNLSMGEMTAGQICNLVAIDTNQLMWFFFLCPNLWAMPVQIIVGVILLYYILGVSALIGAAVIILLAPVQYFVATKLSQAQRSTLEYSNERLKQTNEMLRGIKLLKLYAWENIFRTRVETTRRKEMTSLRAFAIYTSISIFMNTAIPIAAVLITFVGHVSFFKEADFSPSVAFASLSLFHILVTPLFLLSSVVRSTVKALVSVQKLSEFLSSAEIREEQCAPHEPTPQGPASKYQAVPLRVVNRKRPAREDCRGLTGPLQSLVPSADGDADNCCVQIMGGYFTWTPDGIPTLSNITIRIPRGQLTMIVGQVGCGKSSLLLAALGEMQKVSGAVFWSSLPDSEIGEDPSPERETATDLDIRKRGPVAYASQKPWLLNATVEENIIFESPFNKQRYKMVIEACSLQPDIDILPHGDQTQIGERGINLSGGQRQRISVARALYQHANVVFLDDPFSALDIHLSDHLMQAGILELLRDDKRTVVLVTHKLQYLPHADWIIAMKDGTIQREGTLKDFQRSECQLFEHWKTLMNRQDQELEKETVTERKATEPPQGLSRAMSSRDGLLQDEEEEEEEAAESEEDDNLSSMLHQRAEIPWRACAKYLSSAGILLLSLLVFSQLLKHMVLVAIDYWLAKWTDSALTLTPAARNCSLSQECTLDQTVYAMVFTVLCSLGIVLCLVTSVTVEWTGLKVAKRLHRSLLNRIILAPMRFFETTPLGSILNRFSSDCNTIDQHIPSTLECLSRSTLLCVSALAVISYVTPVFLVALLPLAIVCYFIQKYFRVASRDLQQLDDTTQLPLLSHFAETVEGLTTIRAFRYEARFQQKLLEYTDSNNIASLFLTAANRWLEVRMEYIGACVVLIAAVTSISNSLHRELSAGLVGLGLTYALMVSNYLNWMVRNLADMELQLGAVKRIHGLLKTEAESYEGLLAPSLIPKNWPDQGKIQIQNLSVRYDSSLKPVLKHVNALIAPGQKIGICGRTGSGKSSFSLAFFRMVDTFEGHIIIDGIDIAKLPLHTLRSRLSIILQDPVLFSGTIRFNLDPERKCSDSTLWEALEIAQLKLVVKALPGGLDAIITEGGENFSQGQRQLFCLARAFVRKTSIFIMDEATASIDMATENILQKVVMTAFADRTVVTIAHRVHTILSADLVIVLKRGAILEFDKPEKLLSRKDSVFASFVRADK
Excerpt: (§1) We introduced a charge neutralization (alanine, K205A) and a charge reversal (glutamate, K205E) mutation at this position and measured simultaneous nucleotide binding and current inhibition with PCF (Figure 4B,C,D). The binding and inhibition curves for TNP-ATP almost perfectly overlaid for the SUR1-K205A mutant (Figure 4C). The same was also true for SUR1-K205E (Figure 4D). Data were fit with the MWC-type model as before. […] This was reflected by a decrease in the estimated KA for TNP-ATP, which correlated with the degree of conservation of the mutation, that is we observed a larger effect for the charge reversal compared to the charge neutralization mutation (Figure 4E). However, in addition to direct effects of K205 on nucleotide binding, we also observed a shift in D for both mutations (Figure 4E).
(§2) Currents were measured as described above.

Kir6.2*-GFP + SUR-K205E [2] = target: T2, Kir6.2*-GFP + SUR-K205E (Homo sapiens, UniProt Q14654); assay: as above; assay type: biochemical; conditions: Mg2+-free, Hill fit
T2 construct: ANAP labelling is specific and only full-length Kir6.2 is expressed at the cell membrane; expressed in transfected cells; host or cells: HEK-293T
T2 sequence (Q14654 whole entry, stated change not applied): as the sequence (Q14654 whole entry, stated change not applied) above
T2 sequence (Q09428 whole entry K205E partner): as the sequence (Q09428 whole entry K205A partner) above, with A205E counted along it
Excerpt: as §1, §2

Kir6.2-GFP + SUR1 = Kir6.2-GFP + SUR1 (Homo sapiens, UniProt Q14654); assay: FRET (ANAP quenching) nucleotide binding in unroofed membranes; design: full length, fully ANAP-labelled Kir6.2 protein was produced and successfully trafficked to the membrane in the presence of SUR1; expressed in transfected cells; host or cells: HEK-293T; conditions: Hill fit
Sequence of Kir6.2-GFP + SUR1 (Q14654 whole entry, the tested form may be a part): as the sequence (Q14654 whole entry, stated change not applied) above
Sequence of Kir6.2-GFP + SUR1 (Q09428 whole entry partner, the tested form may be a part): as the sequence (Q09428 whole entry K205A partner) above, with A205K counted along it
Excerpt: To measure nucleotide binding, cells transfected with Kir6.2*-GFP + SUR1 were briefly sonicated, leaving behind unroofed plasma membrane fragments ([Heuser, 2000]; [Zagotta et al., 2016]; [Puljung et al., 2019]) containing ANAP-labelled KATP channels with the intracellular nucleotide-binding sites exposed to the bath solution. The sample was excited with a 385 nm LED and emitted fluorescence from the membrane fragments was passed through a spectrometer, allowing us to separate ANAP, GFP, and TNP-ATP fluorescence by peak wavelength (Figure 1E,F). As expected from FRET, increasing the concentration of TNP-ATP caused a decrement in the ANAP peak at 472 nm and a concomitant increase in the TNP-ATP peak at 561 nm (Figure 1F). We used the quenching of the ANAP peak as a direct measure of TNP-ATP binding as this signal was specific to KATP. In contrast, the peak TNP-ATP fluorescence may include contributions from both specific and non-specific nucleotide binding, as well as direct excitation of TNP-ATP in solution by the 385 nm excitation light. Due to the sharp cut-off of the GFP emission spectrum at shorter wavelengths, our measurements of peak ANAP fluorescence were unaffected by the presence of the GFP tag on Kir6.2. […]
Epifluorescence imaging and spectroscopy were performed using a Nikon Eclipse TE2000-U microscope with a 60x water immersion objective (Plan Apo VC, NA = 1.2, Nikon; Kingston upon Thames, UK) or a 100x oil immersion objective (Nikon, Apo TIRF, NA = 1.49). […] Fluorescence spectra were collected by exciting ANAP as above but using a 400 nm long-pass emission filter (ThorLabs), then passing emitted light through an IsoPlane 160 Spectrometer (Princeton Instruments; Trenton, NJ) with a 300 grooves mm^-1 grating. […]
Unroofed membranes were prepared as described previously ([Heuser, 2000]; [Zagotta et al., 2016]; [Puljung et al., 2019]). […] Unroofed membrane fragments were nearly invisible in bright-field images and identified by their GFP and ANAP fluorescence. […]

Kir6.2*-GFP + SUR-K205A [3] = target: T1, Kir6.2*-GFP + SUR-K205A; assay: ANAP fluorescence quenching in excised patches (patch-clamp fluorometry); assay type: binding; conditions: excised patches (PCF), Hill fit
Excerpt: as §1, §2
(§3) ANAP bleaching was corrected as for the unroofed binding experiments with Equation 1 (Figure 2—figure supplement 3A). Due to the lower signal-to-noise ratio for PCF compared to the unroofed membranes, we performed experiments from both high-to-low and low-to-high TNP-ATP concentrations to minimise artifacts from our bleaching corrections.

Kir6.2*-GFP + SUR-K205E [4] = target: T2, Kir6.2*-GFP + SUR-K205E; assay: as above; assay type: binding; conditions: excised patches (PCF), Hill fit
Excerpt: as §1, §2, §3

Nc1ncnc2c1ncn2[C@@H]1O[C@H](COP(=O)(O)OP(=O)(O)OP(=O)(O)O)[C@H]2OC3(O[C@H]21)C([N+](=O)[O-])=CC(=[N+]([O-])[O-])C=C3[N+](=O)[O-] (stereo partly shown) [TNP-ATP, trinitrophenyl-ATP]
h (Hill coefficient) current inhibition (Kir6.2*-GFP + SUR-K205A [1]): 0.75
pIC50 (Kir6.2*-GFP + SUR-K205A [1]; n = 9): 3.78
h (Hill coefficient) current inhibition (Kir6.2*-GFP + SUR-K205E [2]): 0.79
pIC50 (Kir6.2*-GFP + SUR-K205E [2]; n = 9): 3.20
h (Hill coefficient) fluorescence quenching (Kir6.2-GFP + SUR1): 0.82
Emax (Kir6.2-GFP + SUR1; fraction, read-out: Emax fluorescence quenching): 93%
pEC50 (Kir6.2-GFP + SUR1; n = 18, read-out: EC50 fluorescence quenching): 4.59
h (Hill coefficient) fluorescence quenching (Kir6.2*-GFP + SUR-K205A [3]): 0.73
Emax (Kir6.2*-GFP + SUR-K205A [3]; fraction): 100%
pEC50 (Kir6.2*-GFP + SUR-K205A [3]; n = 9): 3.69
h (Hill coefficient) fluorescence quenching (Kir6.2*-GFP + SUR-K205E [4]): 0.74
Emax (Kir6.2*-GFP + SUR-K205E [4]; fraction): 100%
pEC50 (Kir6.2*-GFP + SUR-K205E [4]; n = 9): 3.37
